These results are taken from ChEMBL document CHEMBL1201862, “PubChem BioAssay data set” (2004).

Assay [1] deals with DNA dC->dU-editing enzyme APOBEC-3G (Homo sapiens, UniProt Q9HC16). As to the kind of experiment: APOBEC3G deaminase inhibitors, SAR follow-up, biochemical, fluorescence, single-stranded DNA substrate (AID 602136). It counts as functional. Particulars: read-out: IC50_Mean.
The target of assay [2] is T1, Replicative DNA helicase DnaB (Mycobacterium tuberculosis, UniProt P9WMR3).
T1 sequence (P9WMR3 whole entry): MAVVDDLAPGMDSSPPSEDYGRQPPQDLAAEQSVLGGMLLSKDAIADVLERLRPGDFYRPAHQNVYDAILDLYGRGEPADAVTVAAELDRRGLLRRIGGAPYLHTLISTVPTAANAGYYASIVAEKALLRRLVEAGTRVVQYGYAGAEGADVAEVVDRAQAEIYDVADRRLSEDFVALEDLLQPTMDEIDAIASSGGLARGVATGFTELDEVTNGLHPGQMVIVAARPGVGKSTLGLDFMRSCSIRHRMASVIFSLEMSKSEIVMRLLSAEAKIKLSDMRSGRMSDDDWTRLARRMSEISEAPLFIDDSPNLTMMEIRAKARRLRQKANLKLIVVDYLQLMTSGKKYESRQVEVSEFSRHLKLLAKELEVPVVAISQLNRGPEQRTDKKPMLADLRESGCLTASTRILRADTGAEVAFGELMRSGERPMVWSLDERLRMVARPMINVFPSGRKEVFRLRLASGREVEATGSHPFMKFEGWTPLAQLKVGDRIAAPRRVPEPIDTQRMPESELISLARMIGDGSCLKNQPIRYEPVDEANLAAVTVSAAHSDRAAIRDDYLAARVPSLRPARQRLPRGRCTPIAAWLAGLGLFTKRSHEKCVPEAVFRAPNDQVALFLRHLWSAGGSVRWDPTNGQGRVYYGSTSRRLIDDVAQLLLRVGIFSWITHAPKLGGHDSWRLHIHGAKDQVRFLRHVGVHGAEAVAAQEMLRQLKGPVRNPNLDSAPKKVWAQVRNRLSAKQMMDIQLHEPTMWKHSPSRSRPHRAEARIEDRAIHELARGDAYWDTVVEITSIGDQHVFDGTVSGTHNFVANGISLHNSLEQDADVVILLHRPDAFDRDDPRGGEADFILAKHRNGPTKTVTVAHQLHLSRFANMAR
As to the kind of experiment: DnaB intein splicing inhibitors, dose response, biochemical, cell-free fluorescence (AID 449749). It counts as functional.

For another assay, the target named is Melanocortin receptor 4 (Homo sapiens, UniProt P32245). Kind of assay: MC4R antagonist potency on cAMP, dose response, cell-based, TR-FRET, biased antagonists (AID 602298).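 Also: antagonist potency against agonist-stimulated cAMP production.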 It counts as functional. For orientation: Time-resolved FRET reads energy transfer from a long-lived donor to a nearby acceptor.
Assay [3] deals with DNA dC->dU-editing enzyme APOBEC-3A (Homo sapiens, UniProt P31941). As to the kind of experiment: SAR analysis of small molecule inhibitors of APOBEC3A DNA Deaminase via a fluorescence-based single-stranded DNA deaminase assay. It counts as functional. Particulars: read-out: IC50_Mean.
A short description of assay [4]: nonselective inhibitors of cellular cAMP signaling, dose response, counter-screen for MC4R biased antagonist project, cell-based, TR-FRET cAMP detection (AID 602305).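 Also: U2OS cells stimulated with forskolin near its EC80 as the cAMP inducer; potency is for inhibition of forskolin-stimulated cAMP signaling.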 It counts as functional. Background: A counterscreen serves to expose hits that act by an unwanted route or on another target.
The next assay addresses T2, Protein RecA (Mycobacterium tuberculosis, UniProt P9WHJ3).
T2 sequence (P9WHJ3 whole entry): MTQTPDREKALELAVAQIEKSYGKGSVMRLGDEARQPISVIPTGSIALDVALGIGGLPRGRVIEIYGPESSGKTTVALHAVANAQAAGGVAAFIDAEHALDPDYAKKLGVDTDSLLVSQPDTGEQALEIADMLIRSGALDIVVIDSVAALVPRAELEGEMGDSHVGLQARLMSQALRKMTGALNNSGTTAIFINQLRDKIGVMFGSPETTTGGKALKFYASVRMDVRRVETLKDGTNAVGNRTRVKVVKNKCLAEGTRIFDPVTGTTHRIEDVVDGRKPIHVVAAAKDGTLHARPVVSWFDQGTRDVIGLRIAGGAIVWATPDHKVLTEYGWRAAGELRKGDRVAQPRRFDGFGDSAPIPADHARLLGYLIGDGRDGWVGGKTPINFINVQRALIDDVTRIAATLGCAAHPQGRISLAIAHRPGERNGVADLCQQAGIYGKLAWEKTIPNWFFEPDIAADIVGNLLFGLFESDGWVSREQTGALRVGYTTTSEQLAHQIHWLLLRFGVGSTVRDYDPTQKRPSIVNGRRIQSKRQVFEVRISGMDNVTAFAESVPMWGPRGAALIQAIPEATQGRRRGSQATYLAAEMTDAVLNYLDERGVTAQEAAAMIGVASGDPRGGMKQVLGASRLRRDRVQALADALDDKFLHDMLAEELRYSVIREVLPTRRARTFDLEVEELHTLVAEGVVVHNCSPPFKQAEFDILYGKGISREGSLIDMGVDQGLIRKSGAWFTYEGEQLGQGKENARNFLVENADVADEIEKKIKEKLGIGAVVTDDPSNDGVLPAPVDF
Kind of assay: Fluorescence Cell-Free Homogeneous Dose Retest to Identify Inhibitors of RecA-Intein Splicing Activity. [Related pubchem assays (depositor defined):AID2097, AID2223, AID489010, AID492950]. It counts as functional.

Assay [5] concerns the target T3, Protein disulfide-isomerase (Homo sapiens, UniProt P07237). Kind of assay: PDI inhibitors, insulin turbidity readout, dose response, biochemical, absorbance, cherry-picked samples, set 2 (AID 624274). It counts as functional.
Assay [6] concerns the target T3, Protein disulfide-isomerase. Kind of assay: PDI inhibitors, insulin aggregation turbidity, dose response, biochemical, absorbance, cherry-picked samples (AID 602350). It counts as functional.
In assay [7] the target is Melanin-concentrating hormone receptor 1 (Homo sapiens, UniProt Q99705). Kind of assay: Late-stage fluorescence-based counterscreen for antagonists of the G-protein coupled receptor 7 (GPR7): cell-based dose response assay to identify antagonists of the melanin-concentrating hormone receptor 1 (MCHR1) Set 5. It counts as functional.
In assay [8] the target is T4, Neuropeptides B/W receptor type 1 (Homo sapiens, UniProt P48145).
T4 sequence (P48145 whole entry): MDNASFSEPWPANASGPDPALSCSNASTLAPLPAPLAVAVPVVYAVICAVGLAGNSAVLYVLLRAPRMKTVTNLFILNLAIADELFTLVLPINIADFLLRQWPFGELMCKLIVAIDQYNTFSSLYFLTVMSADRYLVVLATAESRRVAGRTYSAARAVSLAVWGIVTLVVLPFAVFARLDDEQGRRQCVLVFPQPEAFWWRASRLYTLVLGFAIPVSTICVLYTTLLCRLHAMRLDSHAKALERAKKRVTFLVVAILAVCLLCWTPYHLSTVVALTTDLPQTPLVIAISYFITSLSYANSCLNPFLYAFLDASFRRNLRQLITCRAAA
Kind of assay: GPR7 antagonist potency, late-stage follow-up, cell-based, fluorescence, dose response, set 5 (AID 588566). It counts as functional.

Assay [9] concerns the target Interleukin-1 receptor-associated kinase 4 (Homo sapiens, UniProt Q9NWZ3). It counts as functional.
The target in assay [10] is Cell division cycle 7-related protein kinase (Homo sapiens, UniProt O00311). It counts as functional.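 Also: value obtained from a kinome-wide kinase panel.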
Assay [11] concerns the target Mitogen-activated protein kinase kinase kinase kinase 4 (Homo sapiens, UniProt O95819). It counts as functional.
The target in assay [12] is Homeodomain-interacting protein kinase 2 (Homo sapiens, UniProt Q9H2X6). It counts as functional.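 Also: measured within a kinome-wide kinase profiling panel, HIPK2 being one panel member.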
For assay [13], the target named is Glycogen synthase kinase-3 beta (Homo sapiens, UniProt P49841). It counts as functional.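 Also: value comes from a broad kinome profiling panel, with GSK3B as the panel member.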
The target in assay [14] is Dual specificity protein kinase CLK4 (Homo sapiens, UniProt Q9HAZ1). It counts as functional.
For assay [15], the target named is Dual specificity tyrosine-phosphorylation-regulated kinase 1A (Rattus norvegicus, UniProt Q63470). It counts as biochemical, Homo sapiens.
Assay [16] addresses Intestinal-type alkaline phosphatase (Homo sapiens, UniProt P09923). Kind of assay: inhibition of human intestinal alkaline phosphatase – biochemical, dose response (AID 488876). It counts as functional.
The target of assay [17] is T5, Rac GTPase-activating protein 1 (Homo sapiens, UniProt Q9H0H5).
T5 sequence (Q9H0H5 whole entry): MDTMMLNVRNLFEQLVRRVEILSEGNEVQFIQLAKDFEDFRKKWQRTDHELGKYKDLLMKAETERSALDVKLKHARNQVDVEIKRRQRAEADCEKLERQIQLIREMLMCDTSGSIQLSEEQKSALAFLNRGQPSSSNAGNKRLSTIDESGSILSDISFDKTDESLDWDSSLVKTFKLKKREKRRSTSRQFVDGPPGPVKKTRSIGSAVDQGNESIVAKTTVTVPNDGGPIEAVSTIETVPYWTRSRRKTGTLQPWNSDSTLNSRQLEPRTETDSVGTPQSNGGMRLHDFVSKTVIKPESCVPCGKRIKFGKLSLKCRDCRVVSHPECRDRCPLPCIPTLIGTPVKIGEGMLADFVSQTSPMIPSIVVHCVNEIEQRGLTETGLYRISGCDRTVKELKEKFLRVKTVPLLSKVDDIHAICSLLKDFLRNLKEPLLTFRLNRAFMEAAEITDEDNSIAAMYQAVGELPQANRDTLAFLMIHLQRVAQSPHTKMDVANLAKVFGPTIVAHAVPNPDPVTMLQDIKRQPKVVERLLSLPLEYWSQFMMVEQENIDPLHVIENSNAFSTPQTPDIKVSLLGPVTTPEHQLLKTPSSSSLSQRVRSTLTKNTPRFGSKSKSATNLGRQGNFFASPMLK
As to the kind of experiment: MgcRacGAP GTPase-activating activity inhibitors, confirmation, biochemical, ADP Hunter fluorescence, primary and confirmatory (AID 624330). It counts as functional.

Assay [18] concerns the target 72 kDa type IV collagenase (Homo sapiens, UniProt P08253). As to the kind of experiment: Dose Response validation of uHTS RPN11 inhibitor hits using a MMP-2 Fluorescence assay. It counts as functional.
Assay [19] concerns the target Multidrug resistance protein CDR2 (Candida albicans (strain SC5314 / ATCC MYA-2876) (Yeast), UniProt P78595). Kind of assay: CaCDR2 efflux pump inhibitors in yeast, dose response, S. cerevisiae AD1-8u, singleplex, Cherry Pick1 hits (AID 588604). It counts as functional.
In assay [20] the target is T6, Alkaline phosphatase, tissue-nonspecific isozyme (Homo sapiens, UniProt P05186).
T6 sequence (P05186 whole entry): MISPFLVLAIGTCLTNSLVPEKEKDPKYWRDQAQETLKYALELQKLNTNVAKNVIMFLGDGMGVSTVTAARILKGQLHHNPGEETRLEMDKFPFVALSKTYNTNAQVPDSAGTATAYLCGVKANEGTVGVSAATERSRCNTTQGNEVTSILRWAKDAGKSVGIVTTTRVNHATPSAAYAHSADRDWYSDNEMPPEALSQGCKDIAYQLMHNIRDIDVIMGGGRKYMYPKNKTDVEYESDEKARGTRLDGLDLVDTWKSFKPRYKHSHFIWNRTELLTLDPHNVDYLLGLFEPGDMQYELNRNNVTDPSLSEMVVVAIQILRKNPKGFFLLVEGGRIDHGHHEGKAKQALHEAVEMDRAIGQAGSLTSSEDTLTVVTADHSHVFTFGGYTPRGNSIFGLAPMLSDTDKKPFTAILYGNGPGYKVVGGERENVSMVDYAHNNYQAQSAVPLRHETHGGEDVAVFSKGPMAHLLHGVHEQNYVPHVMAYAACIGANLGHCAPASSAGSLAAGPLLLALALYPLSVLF
As to the kind of experiment: TNAP enzyme inhibition by screening hits, dose response, selectivity assay for mouse IAP inhibitor project, biochemical, human TNAP, uHTS hits (AID 488906). It counts as functional.

Assay [21] has as its target Intestinal-type alkaline phosphatase (Mus musculus, UniProt P24822). As to the kind of experiment: PubChem AID 488785. It counts as functional.
Assay [22] addresses Induced myeloid leukemia cell differentiation protein Mcl-1 (Homo sapiens, UniProt Q07820). It counts as functional.
In another assay the target is Prothrombin (Bos taurus, UniProt P00735). Kind of assay: thrombin inhibition, dose response, biochemical, fluorescence polarization, uHTS hits (AID 602369). It counts as functional.
Assay [23] addresses 26S proteasome non-ATPase regulatory subunit 14 (Homo sapiens, UniProt O00487). As to the kind of experiment: inhibition of proteasome subunit RPN11 – biochemical, fluorescence polarization, uHTS hits, confirmation (AID 602368). It counts as functional. On the technique in general: Fluorescence polarisation rises when a labelled molecule tumbles more slowly, as on binding a larger partner.

Structures are written as SMILES. Calls of active or inactive are those of the source.

T3 sequence (P07237 whole entry): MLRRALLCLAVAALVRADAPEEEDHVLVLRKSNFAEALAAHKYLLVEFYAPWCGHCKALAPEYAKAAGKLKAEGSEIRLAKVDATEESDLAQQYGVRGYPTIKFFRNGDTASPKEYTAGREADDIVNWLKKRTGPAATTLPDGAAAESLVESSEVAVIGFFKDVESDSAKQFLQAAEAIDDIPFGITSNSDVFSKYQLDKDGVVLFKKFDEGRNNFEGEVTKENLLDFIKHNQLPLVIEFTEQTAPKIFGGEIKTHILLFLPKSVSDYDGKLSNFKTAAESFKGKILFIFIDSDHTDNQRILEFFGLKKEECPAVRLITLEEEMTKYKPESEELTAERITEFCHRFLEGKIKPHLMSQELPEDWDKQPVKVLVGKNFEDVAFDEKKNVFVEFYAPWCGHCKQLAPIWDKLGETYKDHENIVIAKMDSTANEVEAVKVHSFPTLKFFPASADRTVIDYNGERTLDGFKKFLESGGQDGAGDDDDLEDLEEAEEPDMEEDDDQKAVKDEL
Chain of 72 kDa type IV collagenase (P08253 whole entry): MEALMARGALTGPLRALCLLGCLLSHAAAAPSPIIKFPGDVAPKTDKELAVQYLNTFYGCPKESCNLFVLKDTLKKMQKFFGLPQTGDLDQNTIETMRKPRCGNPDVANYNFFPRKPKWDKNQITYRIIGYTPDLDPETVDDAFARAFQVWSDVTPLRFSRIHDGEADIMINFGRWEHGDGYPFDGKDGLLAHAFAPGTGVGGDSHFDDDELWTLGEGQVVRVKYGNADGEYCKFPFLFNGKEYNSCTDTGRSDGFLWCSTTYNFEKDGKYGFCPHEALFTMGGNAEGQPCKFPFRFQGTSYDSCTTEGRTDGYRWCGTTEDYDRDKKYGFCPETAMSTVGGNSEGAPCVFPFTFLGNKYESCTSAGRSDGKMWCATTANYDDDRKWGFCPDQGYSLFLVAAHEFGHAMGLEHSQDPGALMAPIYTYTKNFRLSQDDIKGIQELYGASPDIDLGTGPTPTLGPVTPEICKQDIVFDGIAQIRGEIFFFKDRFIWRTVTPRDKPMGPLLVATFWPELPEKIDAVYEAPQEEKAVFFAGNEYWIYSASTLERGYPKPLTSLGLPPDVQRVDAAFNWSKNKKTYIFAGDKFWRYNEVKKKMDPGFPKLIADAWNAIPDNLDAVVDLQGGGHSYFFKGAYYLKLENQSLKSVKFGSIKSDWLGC
Chain of 26S proteasome non-ATPase regulatory subunit 14 (O00487 whole entry): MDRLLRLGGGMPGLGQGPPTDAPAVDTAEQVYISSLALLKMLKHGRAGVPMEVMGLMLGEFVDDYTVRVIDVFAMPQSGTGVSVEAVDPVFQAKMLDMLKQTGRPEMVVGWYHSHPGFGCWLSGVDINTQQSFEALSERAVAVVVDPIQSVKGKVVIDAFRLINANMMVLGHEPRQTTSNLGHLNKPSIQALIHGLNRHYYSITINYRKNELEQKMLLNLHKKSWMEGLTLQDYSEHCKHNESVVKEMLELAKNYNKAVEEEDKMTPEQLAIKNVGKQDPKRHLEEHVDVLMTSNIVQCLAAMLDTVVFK
Chain of Interleukin-1 receptor-associated kinase 4 (Q9NWZ3 whole entry): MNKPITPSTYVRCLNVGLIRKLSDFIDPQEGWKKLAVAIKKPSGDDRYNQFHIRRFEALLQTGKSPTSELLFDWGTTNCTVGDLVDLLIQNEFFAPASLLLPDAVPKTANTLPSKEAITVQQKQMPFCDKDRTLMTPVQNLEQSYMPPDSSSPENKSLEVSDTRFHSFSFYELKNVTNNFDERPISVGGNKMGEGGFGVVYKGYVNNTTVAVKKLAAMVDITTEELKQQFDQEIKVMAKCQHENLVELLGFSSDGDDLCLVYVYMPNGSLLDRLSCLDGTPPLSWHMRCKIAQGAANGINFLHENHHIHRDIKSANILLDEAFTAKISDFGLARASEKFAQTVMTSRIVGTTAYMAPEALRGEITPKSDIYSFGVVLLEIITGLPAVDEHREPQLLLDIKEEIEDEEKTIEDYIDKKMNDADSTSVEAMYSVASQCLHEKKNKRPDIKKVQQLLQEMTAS
Chain of Mitogen-activated protein kinase kinase kinase kinase 4 (O95819 whole entry): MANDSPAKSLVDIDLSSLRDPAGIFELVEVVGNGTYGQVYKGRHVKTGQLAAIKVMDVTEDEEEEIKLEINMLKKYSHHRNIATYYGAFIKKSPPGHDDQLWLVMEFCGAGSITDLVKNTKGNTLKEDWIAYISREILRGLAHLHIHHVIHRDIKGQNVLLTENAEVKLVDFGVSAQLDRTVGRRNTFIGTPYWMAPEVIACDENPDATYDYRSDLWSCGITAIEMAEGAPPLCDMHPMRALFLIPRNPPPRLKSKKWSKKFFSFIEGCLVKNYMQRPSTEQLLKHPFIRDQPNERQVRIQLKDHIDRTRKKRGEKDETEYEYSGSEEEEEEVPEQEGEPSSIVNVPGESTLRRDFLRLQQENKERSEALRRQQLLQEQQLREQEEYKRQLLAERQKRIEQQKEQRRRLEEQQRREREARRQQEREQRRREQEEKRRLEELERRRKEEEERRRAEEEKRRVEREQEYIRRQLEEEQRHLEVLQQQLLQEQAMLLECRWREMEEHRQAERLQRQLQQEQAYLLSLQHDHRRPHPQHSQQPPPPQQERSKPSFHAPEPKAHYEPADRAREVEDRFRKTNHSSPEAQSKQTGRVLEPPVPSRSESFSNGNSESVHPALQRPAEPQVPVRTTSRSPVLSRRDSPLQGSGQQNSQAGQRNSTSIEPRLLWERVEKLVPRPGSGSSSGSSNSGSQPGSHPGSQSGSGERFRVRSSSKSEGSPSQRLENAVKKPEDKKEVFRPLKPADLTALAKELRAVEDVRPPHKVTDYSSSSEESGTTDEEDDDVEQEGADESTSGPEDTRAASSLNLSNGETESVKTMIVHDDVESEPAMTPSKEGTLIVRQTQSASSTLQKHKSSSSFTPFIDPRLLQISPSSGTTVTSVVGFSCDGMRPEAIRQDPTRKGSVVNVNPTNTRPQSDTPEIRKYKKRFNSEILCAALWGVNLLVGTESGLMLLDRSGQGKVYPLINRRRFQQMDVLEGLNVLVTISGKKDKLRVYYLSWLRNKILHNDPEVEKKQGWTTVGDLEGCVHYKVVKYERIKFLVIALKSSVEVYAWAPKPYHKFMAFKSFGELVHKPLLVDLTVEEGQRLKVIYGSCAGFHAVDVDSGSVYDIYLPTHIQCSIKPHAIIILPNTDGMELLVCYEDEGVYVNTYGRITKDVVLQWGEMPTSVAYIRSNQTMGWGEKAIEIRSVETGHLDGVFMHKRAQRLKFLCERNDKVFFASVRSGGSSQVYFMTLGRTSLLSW
Chain of Intestinal-type alkaline phosphatase (Homo sapiens, UniProt P09923) (P09923 whole entry): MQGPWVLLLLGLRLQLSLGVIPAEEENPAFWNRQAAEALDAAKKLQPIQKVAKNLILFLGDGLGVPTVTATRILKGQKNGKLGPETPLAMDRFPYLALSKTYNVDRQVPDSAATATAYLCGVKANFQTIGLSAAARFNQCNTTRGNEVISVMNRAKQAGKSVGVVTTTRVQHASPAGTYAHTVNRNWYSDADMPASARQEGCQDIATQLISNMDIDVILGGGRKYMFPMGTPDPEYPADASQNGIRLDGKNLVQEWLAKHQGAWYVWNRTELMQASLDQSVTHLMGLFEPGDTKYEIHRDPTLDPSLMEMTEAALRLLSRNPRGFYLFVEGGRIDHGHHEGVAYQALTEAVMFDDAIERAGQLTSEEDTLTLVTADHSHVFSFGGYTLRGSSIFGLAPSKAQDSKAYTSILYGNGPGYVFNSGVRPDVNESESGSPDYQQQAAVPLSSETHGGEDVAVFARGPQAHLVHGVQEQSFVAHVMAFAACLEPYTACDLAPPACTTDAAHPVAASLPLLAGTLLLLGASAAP
Chain of Dual specificity protein kinase CLK4 (Q9HAZ1 whole entry): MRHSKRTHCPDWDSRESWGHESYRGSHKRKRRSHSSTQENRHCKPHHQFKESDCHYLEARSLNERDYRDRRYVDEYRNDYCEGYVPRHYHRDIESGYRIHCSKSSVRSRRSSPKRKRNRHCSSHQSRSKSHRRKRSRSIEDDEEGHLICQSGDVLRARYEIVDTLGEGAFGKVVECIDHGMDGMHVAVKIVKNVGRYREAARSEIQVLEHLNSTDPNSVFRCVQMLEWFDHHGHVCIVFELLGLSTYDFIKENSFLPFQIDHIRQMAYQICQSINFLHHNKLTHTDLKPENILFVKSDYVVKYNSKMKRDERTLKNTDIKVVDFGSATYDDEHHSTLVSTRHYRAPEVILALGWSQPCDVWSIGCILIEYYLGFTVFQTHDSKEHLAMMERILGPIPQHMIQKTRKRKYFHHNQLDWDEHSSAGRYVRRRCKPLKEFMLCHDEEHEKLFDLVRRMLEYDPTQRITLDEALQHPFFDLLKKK
Chain of DNA dC->dU-editing enzyme APOBEC-3A (P31941 whole entry): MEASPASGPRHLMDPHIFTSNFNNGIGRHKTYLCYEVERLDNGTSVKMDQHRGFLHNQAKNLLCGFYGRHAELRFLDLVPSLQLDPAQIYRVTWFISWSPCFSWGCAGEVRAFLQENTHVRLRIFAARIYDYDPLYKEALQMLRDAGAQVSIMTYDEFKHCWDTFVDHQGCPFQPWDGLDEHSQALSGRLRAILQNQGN
Chain of Glycogen synthase kinase-3 beta (P49841 whole entry): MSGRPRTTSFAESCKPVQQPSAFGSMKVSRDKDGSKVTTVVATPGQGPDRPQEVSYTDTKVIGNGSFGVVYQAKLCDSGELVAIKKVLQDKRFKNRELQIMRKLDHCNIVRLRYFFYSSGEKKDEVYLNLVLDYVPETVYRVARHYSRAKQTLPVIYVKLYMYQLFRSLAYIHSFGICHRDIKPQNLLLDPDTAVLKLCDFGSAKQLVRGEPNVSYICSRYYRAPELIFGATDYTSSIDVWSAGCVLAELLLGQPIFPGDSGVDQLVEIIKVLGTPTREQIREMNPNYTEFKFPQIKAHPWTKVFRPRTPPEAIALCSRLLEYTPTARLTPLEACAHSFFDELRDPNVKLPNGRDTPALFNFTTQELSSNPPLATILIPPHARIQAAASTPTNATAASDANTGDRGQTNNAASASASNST

The AC50 is the midpoint of the concentration-response curve, whichever way the signal moves. As usually defined, the EC50 is the concentration that produces a half-maximal response. For `CS(=O)(=O)c1nc([N+](=O)[O-])nn1CCCc1ccccc1`, the IC50 in assay [1] was > 99 µM (inactive); at Melanocortin receptor 4, > 64.5 µM (inactive); in assay [3], > 99 µM (inactive); in [4], > 64.5 µM (inactive). In [2], the concentration at half-maximal activity (AC50) is 7.7 µM (active). Further, at Protein RecA, the EC50 was 14.5 µM (active).
As for `CC(NCC(O)COCc1ccc(Cl)cc1)c1ccccc1` (stereo unspecified), the half-maximal activity concentration (AC50) in [5] is 0.009 µM (active); in assay [6], < 0.009 µM (active).
For `N#CC(c1ccccc1)c1cnn(Cc2cccc3ccccc23)c(=O)c1Cl` (stereo unspecified), the IC50 is > 20 µM (inactive) in assay [7] and ~0.702 µM (active) in assay [8].
In general, Ki refers to a dissociation constant, usually derived from enzyme kinetics or from competition with a known ligand. Turning to `CN(C)CCCOc1cc(-c2ccncc2)cc2[nH]nc(N)c12`, the Ki in [9] is 0.158 µM (active); in assay [10] it was 0.0126 µM (active); in assay [11], 0.794 µM (active); in assay [12], > 3.16 µM (inactive); in [13], 6.31 µM (active); in assay [14], 0.0794 µM (active).
For `O=C1/C(=C/c2ccc(O)c(O)c2)Oc2cc(O)ccc21` [SULFURETIN], the AC50 in assay [15] is 2.32 µM (active). In addition, the IC50 in assay [16] was 66.3 µM (active); in assay [17] it was 20.6 µM (active); in [18] it was > 100 µM (inactive); in assay [20] it was 52.9 µM (active); in [21], 19.7 µM (active); in assay [22] it was 1.53 µM (active). Besides, the IC50 on Prothrombin is 21.7 µM (active); in [23], 23.8 µM (active). In addition, in assay [19], the EC50 is 0.424 µM (active).
